In patent US5135746A, “Control of protozoal disease” (Takeda Chemical Industries, Ltd., priority 1989, dated 1992):
“And” between values parts separate entries of the source, which are not always exact repeats. Equal values may be shown once.

Key:
[1] = test system: Laboratory Standard Strain Eimeria tenella; assay: Anticoccidial effect in White Leghorn chicks infected with laboratory standard strain Eimeria tenella, drugs in feed for 9 days (Table 1); assay type: in vivo; parameters: Caecal Lesion: scale not given here; conditions: for OPG: day7; for Caecal Lesion: day-8
Protocol: (§1) The effect of the drugs to coccidiosis was examined using chicks. Namely, nine-day-old White Leghorn male chicks were divided into groups each of which consists of 3 chicks, and 5×10^4 sporulated oocysts per chick of laboratory standard strain Eimeria tenella were orally inoculated into the chicks in all groups except for the control group in which the chicks were not infected and not dosed with the drugs, at 24 hours after the start of dosing. Prescribed amounts of respective plant components dried and crushed and monensin sodium or salinomycin sodium were added to the basal feed (SDL No. 1: Nippon Haigo Shiryo), and continuously administered by the free ingesting method for 9 days from 24 hours before infection to 8 days after infection. The weight of each chick was measured, and the bloody dropping were observed. Further, the chicks were autopsied at day-8 after infection to examine the caecel lesion. Thus, the anticoccidial effect of the administered test drugs was determined.
Note ^1) Weight gain ratio = (Average weight gain for each test
Note ^2) The bloody feces index is indicated by the number of bloody
Note ^3) The caecal lesion is indicated by an average score when
Note ^5) The ND means "not detected".

[2] = Acute toxicity by oral administration to mice; conditions: mouse, in vivo
[3] = test system: Field Isolate Eimeria tenella (AMD); assay: Anticoccidial effect in chicks infected with field isolate Eimeria tenella (AMD) resistant against ionophore antibiotics, 30,000 oocysts per chick (Tables 2-4); assay type: in vivo
[4] = test system: Laboratory Standard Strain Eimeria tenella (AMD); assay: Combined effect of ionophore antibiotics and Rhizophoraceae bark in infected chicks (Table 5); assay type: in vivo
Protocol: as §1
The combined administration effect of the ionophore antibiotics and Rhizophoraceae bark was examined, by an infection experiment method in accordance with the method in Example 1.

[5] = test system: Field Chicken Coocidia of Mixed Species; assay: Combined effect of monensin and Rhizophoraceae bark in chicks infected with field coccidia of mixed species, 10,000 oocysts per chick (Table 6); assay type: in vivo, mixed strain containing five or more kinds of coccidia; conditions: 80 ppm in feed
Protocol: as §1
Using the mixed strain (large size oocysts: 5%, middle size oocysts: 72%, small size oocysts: 23%) collected in the field and containing five or more kinds of coccidia, the combined administration effect of monensin and Rhizophoraceae bark against chicks infected with 10,000 oocysts per chick was examined, by an infection experiment method in accordance with the method in Example 1. In Table 6, the general intestine lesion value was obtained by converting the sum of values judged by the five steps from 0 to +4 to a value per chick, for the lesion of upper, middle and lower parts of small intestine and caecum, according to the method described in Johnson and Reid, Exp. Parasitol. 28, 30-36 (1970). Other determinations were carried out in the same manner as with Example 1.

For `C=CCc1ccc(O)c(-c2ccc(O)c(CC=C)c2)c1` [Honokiol, honokiol], the Mortality ([1]; 125 ppm in feed) was 1/3, the “No. of Bloody Droppings” value ([1]; 125 ppm in feed) was 13.3 and the “Weight Gain Ratio” value ([1]; 125 ppm in feed) was 41.6%. The OPG ([1]; 125 ppm in feed) was 5.1 log, the “Caecal Lesion” value ([1]; 125 ppm in feed) was 4.0 and the Mortality ([1]; 500 ppm in feed) was 0/3. For the same compound, the “No. of Bloody Droppings” value ([1]; 500 ppm in feed) was 1.0, the “Weight Gain Ratio” value ([1]; 500 ppm in feed) was 99.4% and the OPG ([1]; 500 ppm in feed) was 4.9 log. The “Caecal Lesion” value ([1]; 500 ppm in feed) was 3.3.

For `C=CCc1ccc(O)c(-c2cc(CC=C)ccc2O)c1` [Magnolol], the Mortality ([1]; 125 ppm in feed) was 0/3, the “No. of Bloody Droppings” value ([1]; 125 ppm in feed) was 13.3 and the “Weight Gain Ratio” value ([1]; 125 ppm in feed) was 62.5%. For the same compound, the OPG ([1]; 125 ppm in feed) was 5.3 log, the “Caecal Lesion” value ([1]; 125 ppm in feed) was 4.0 and the Mortality ([1]; 250 ppm in feed) was 0/3. The “No. of Bloody Droppings” value ([1]; 250 ppm in feed) was 3.7, the “Weight Gain Ratio” value ([1]; 250 ppm in feed) was 89.3% and the OPG ([1]; 250 ppm in feed) was 5.8 log. The “Caecal Lesion” value ([1]; 250 ppm in feed) was 4.0, the Mortality ([1]; 500 ppm in feed) was 0/3 and the “No. of Bloody Droppings” value ([1]; 500 ppm in feed) was 1.3. For the same compound, the “Weight Gain Ratio” value ([1]; 500 ppm in feed) was 94.5%, the OPG ([1]; 500 ppm in feed) was 3.2 log and the “Caecal Lesion” value ([1]; 500 ppm in feed) was 3.3. It also gave an LD50 [2] of 2200 mg/kg.

For `CCC1(C2OC(C3OC(O)(CO)C(C)CC3C)CC2C)CCC(C2(C)CCC3(CC(O)C(C)C(C(C)C(OC)C(C)C(=O)O)O3)O2)O1` (stereo not shown) [Monensin, monensin sodium], the Mortality ([1]; 40 ppm in feed) was 1/3, the “No. of Bloody Droppings” value ([1]; 40 ppm in feed) was 13.3 and the “Weight Gain Ratio” value ([1]; 40 ppm in feed) was 36.7%. The OPG ([1]; 40 ppm in feed) was 4.5 log, the “Caecal Lesion” value ([1]; 40 ppm in feed) was 4.0 and the Mortality ([1]; 60 ppm in feed) was 0/3. The “No. of Bloody Droppings” value ([1]; 60 ppm in feed) was 7.3, the “Weight Gain Ratio” value ([1]; 60 ppm in feed) was 92.9% and the OPG ([1]; 60 ppm in feed) was 4.6 log. The “Caecal Lesion” value ([1]; 60 ppm in feed) was 4.0, the Mortality ([1]; 80 ppm in feed) was 0/6 and the “No. of Bloody Droppings” value ([1]; 80 ppm in feed) was 1.0. The “Weight Gain Ratio” value ([1]; 80 ppm in feed) was 103.2%, the OPG ([1]; 80 ppm in feed) was 4.3 log and the “Caecal Lesion” value ([1]; 80 ppm in feed) was 2.2. For the same compound, the Mortality ([1]; 120 ppm in feed) was 0/6, the “No. of Bloody Droppings” value ([1]; 120 ppm in feed) was 0 and the “Weight Gain Ratio” value ([1]; 120 ppm in feed) was 103.2%. For the same compound, the OPG ([1]; 120 ppm in feed) was 3.4 log, the “Caecal Lesion” value ([1]; 120 ppm in feed) was 0 and the “Caecal Lesion” value ([3]; 80 ppm in feed) was 4.0 and 3.8. The Mortality ([3]; 80 ppm in feed) was 0/5, the “No. of Bloody Droppings” value ([3]; 80 ppm in feed) was 10.0 and 9.0 and the OPG ([3]; 80 ppm in feed) was 6.2 log and 6.1 log. For the same compound, the “Weight Gain Ratio” value ([3]; 80 ppm in feed) was 54.8% and 72.3%, the “Caecal Lesion” value ([3]; 100 ppm in feed) was 4.0 and the Mortality ([3]; 100 ppm in feed) was 0/5. The “No. of Bloody Droppings” value ([3]; 100 ppm in feed) was 8.0, the OPG ([3]; 100 ppm in feed) was 6.1 log and the “Weight Gain Ratio” value ([3]; 100 ppm in feed) was 72.6%. The Mortality ([3]; 160 ppm in feed) was 0/5, the “No. of Bloody Droppings” value ([3]; 160 ppm in feed) was 0 and the OPG ([3]; 160 ppm in feed) was 4.7 log. For the same compound, the “Weight Gain Ratio” value ([3]; 160 ppm in feed) was 81.5% and 86.5%, the “Caecal Lesion” value ([3]; 240 ppm in feed) was 0 and the Mortality ([3]; 240 ppm in feed) was 0/5. The “No. of Bloody Droppings” value ([3]; 240 ppm in feed) was 0, the “Weight Gain Ratio” value ([3]; 240 ppm in feed) was 46.5% and the “concentration at which sufficient antiprotozoal activity is shown” value ([3]; in feed) was at least 160 ppm. The “Caecal Lesion” value ([4]; 80 ppm in feed) was 3.2, the Mortality ([4]; 80 ppm in feed) was 0/9 and the “No. of Bloody Droppings” value ([4]; 80 ppm in feed) was 5.0. For the same compound, the “Weight Gain Ratio” value ([4]; 80 ppm in feed) was 88%, the Mortality [5] was 1/6 and the “No. of Bloody Droppings” value [5] was 6.0. For the same compound, the “Weight Gain Ratio” value [5] was 89% and the “Caecal Lesion” value ([5]; general intestine lesion value) was 5.5.

In the case of `CC[C@@H](C(=O)[C@@H](C)[C@@H](O)[C@H](C)[C@@H]1O[C@@H]([C@@H](CC)C(=O)O)CC[C@@H]1C)[C@H]1O[C@]2(C=C[C@@H](O)[C@]3(CC[C@@](C)([C@H]4CC[C@](O)(CC)[C@H](C)O4)O3)O2)[C@H](C)C[C@@H]1C` [Salinomycin, salinomycin sodium], the “Caecal Lesion” value ([3]; 50 ppm in feed) is reported as 3.2, the Mortality ([3]; 50 ppm in feed) is reported as 0/5 and the “No. of Bloody Droppings” value ([3]; 50 ppm in feed) is reported as 9.0. For the same compound, the OPG ([3]; 50 ppm in feed) was 5.8 log, the “Weight Gain Ratio” value ([3]; 50 ppm in feed) was 80.3% and the “Caecal Lesion” value ([4]; 50 ppm in feed) was 3.6. The Mortality ([4]; 50 ppm in feed) was 1/9, the “No. of Bloody Droppings” value ([4]; 50 ppm in feed) was 7.0 and the “Weight Gain Ratio” value ([4]; 50 ppm in feed) was 62%.
